The source made the active and inactive calls. How the calls were made is not given here. Bounds are passed on as bounds.

In this assay the test system is HEK-293T NF-kB luciferase reporter counterscreen, luminescence. The assay is described as follows: inhibitors of HEK-293T NF-kB luciferase – HEK-293T cells, luminescence, counter-screen for T-cell antigen receptor NF-kB inhibitors, dose response (AID 489041).
For `CC(=O)O[C@@]12CO[C@@H]1C[C@H](O)[C@@]1(C)C(=O)[C@H](O)C3=C(C)[C@@H](OC(=O)[C@H](O)[C@@H](NC(=O)c4ccccc4)c4ccccc4)C[C@@](O)([C@@H](OC(=O)c4ccccc4)C12)C3(C)C` (some centres not stated), the IC50 is > 80 µM (inactive).

As for `COC(=O)c1ccccc1NC(=O)Cn1c(-c2nonc2N)nc2ccccc21`, the IC50 is 3.77 µM.

Take `CCOc1cc(C(=O)N/N=C/C(Br)=C/c2ccccc2)cc(OCC)c1OCC`: the 50% inhibitory concentration (IC50) was 1.11 µM.

Consider `CN1/C(=C\C(=O)C[n+]2ccc3ccccc3c2)C(C)(C)c2ccccc21`, for which the IC50 was 4.62 µM.

As for `COc1ccc(OC)c(C2CC(=O)c3c([nH]c(C(=O)OC(C)C)c3C)C2)c1` (configuration not stated), the 50% inhibitory concentration (IC50) is 2.29 µM.

For the compound `COC(=O)c1nn(-c2ccc3c(c2)CCN3C(C)=O)cc1O`, the 50% inhibitory concentration (IC50) was 3.87 µM.

Consider `COc1ccc(OC)c(NS(=O)(=O)c2ccc(N3CCCC3=O)cc2)c1`, for which the IC50 was 4.36 µM.

On to `COc1ccc(NC(=O)Cn2nnc(-c3ccccc3NS(=O)(=O)c3ccc(OC)cc3)n2)cc1`, for which the half-inhibitory concentration (IC50) is 13.6 µM.

For the compound `Cc1cccc(NS(=O)(=O)c2ccc(-c3cnc(C4CC4)o3)cc2)c1`, the IC50 is 3.27 µM.

As to `CCCCC(=O)NC(c1ccc(N(C)C)cc1)c1ccc2cccnc2c1O` (configuration not stated), the IC50 was > 80 µM (inactive).

As for `COc1ccc([C@H]2CC(=O)C=C(c3ccc(OC)cc3OC)C2)cc1`, the concentration for half-maximal inhibition (IC50) was 9.99 µM.

In the case of `COc1cc2nc(NC(=O)c3ccco3)sc(=O)c2cc1OC`, the IC50 was 66.7 µM (inactive).

For `CCOC(=O)C(C)Oc1cccc2c(=O)n(CC(=O)NCc3ccco3)ccc12` (configuration not stated), the 50% inhibitory concentration (IC50) is 7.92 µM.

On to `CCCCN=C[C@]12CCC(O)CC1(O)CCC1[C@@H]2CC[C@]2(C)[C@H](C3C=CC(=O)O3)CCC12O` (some centres not stated), for which the IC50 was 0.34 µM.

`COc1ccccc1NC(=O)C1=C(C)Nc2nc3ccccc3n2C1c1cccs1` (configuration not stated): the IC50 is 13.6 µM.

In the case of `COc1ccc(OC)c(-c2nnc3n2N=C(c2ccc(OC)c(OC)c2)CS3)c1`, the concentration for half-maximal inhibition (IC50) was 0.65 µM.

Regarding `Cc1ccc(NC(=O)c2cc3ccccc3oc2=O)cc1S(=O)(=O)N(C)C`, the IC50 was under 0.16 µM.

In the case of `O=C(c1ccccc1)c1cc([N+](=O)[O-])ccc1N1CCOCC1`, the half-inhibitory concentration (IC50) was 17.1 µM.

Take `Cc1csc2sc(-c3ccnc(SCC(=O)NCc4ccccc4)n3)c(C)c12`: the half-inhibitory concentration (IC50) was 3.8 µM.

As to `Cc1ccccc1NS(=O)(=O)c1ccc(N2CCCC2=O)cc1`, the IC50 is 42.2 µM (inactive).

As for `CCCCN1/C(=C/c2ccc3ccccc3[n+]2CC)Sc2ccccc21`, the IC50 is 2.02 µM.

For the compound `COc1cccc(-c2cc(=O)c3cc(NC(=O)c4ccc(N(C)C)cc4)ccc3[nH]2)c1`, the IC50 was > 80 µM (inactive).

With `COc1ccccc1C(=O)N(CCC1CCCN1C)c1nc2ccccc2s1` (configuration not stated), the IC50 was 18.6 µM.

Regarding `C=C(C=O)C[C@@H]1C[C@H](O)C2OC3C[C@]4(C)OC5/C=C\CC6OC7C(CC=CCC6OC5CCCC4OC3CC2O1)OC1CC2OC3CC(=O)OC3C[C@@H](C)C[C@@]2(C)OC1C[C@@H]7C` (some centres not stated), the IC50 is > 80 µM (inactive).

As for `COc1cc([C@@H]2c3cc4c(cc3[C@H](O)[C@H]3COC(=O)[C@H]23)OCO4)cc(OC)c1OC`, the half-maximal inhibitory concentration (IC50) was under 0.16 µM.

With `CCOc1ccc(Nc2cc(C)nc(-n3nc(C)cc3C)n2)cc1`, the IC50 is 3.93 µM.

As for `Cc1ccc2[nH]c3c(c2c1)CCCC3NC(=O)CCl` (configuration not stated), the concentration for half-maximal inhibition (IC50) is 7.68 µM.

Take `O=C(N/N=C/c1ccccc1Cl)c1[nH]c2ccc(Br)cc2c1-c1ccccc1`: the IC50 is 38.3 µM (inactive).

`Cc1c(C(=O)N/N=C/c2c(O)ccc3ccccc23)nnn1-c1nonc1N`: the IC50 is > 80 µM (inactive).

As to `O=C(O)c1ccc(-c2ccc(-c3ccccc3)cc2)s1`, the IC50 is 9.3 µM.

Take `COc1ccc(C(C(=O)NC2CCCCC2)N(C(=O)CCl)c2ccc(C)cc2)cc1` (configuration not stated): the IC50 is > 80 µM (inactive).

Turning to `CC[C@@]1(O)C(=O)OCc2c1cc1n(c2=O)Cc2cc3c(N)cccc3nc2-1`, the IC50 is 6.02 µM.

For the compound `Cc1cnc(NC(=O)c2ccc3c(c2)OCCO3)s1`, the half-inhibitory concentration (IC50) is 3.78 µM.

`Cn1c2c(c(=O)n(C)c1=O)C(C(F)(F)F)(C(F)(F)F)N=C(c1ccc(Cl)cc1)N2`: the IC50 is 1.62 µM.

Regarding `Cc1ccc2oc(/N=C(\N)NC(=O)C(C)(C)C)nc2c1`, the IC50 was under 0.16 µM.

For the compound `C=CCNC(=S)N/N=C(\C)c1ccccn1`, the IC50 was > 80 µM (inactive).

With `CC(=O)c1c(C)[nH]c(C(=O)OCC(=O)Nc2ccc(C)cc2[N+](=O)[O-])c1C`, the IC50 was 0.79 µM.

With `COc1ccccc1CNS(=O)(=O)c1ccc(-c2cnc(C3CC3)o2)cc1`, the half-maximal inhibitory concentration (IC50) is 2.6 µM.

`COc1cc2c(cc1O)CC[C@@H]1[C@@H]2CC[C@]2(C)[C@@H](O)CC[C@@H]12`: the IC50 was 23 µM (inactive).

Take `Cc1ccc(S(=O)(=O)Cc2ccc(C(=O)N3CCN(c4cccc(C)c4C)CC3)o2)cc1`: the IC50 is 3.22 µM.

For `O=C1CC(c2cc(F)ccc2F)c2cc3c(cc2N1)CCC3` (configuration not stated), the half-maximal inhibitory concentration (IC50) is 4.69 µM.

As to `COc1ccc2c(c1)/C(=C/c1cnc[nH]1)C(=O)N2`, the IC50 was 0.7 µM.

As for `COc1ccc(C[C@H](N)C(=O)N[C@H]2[C@@H](O)[C@H](n3cnc4c(N(C)C)ncnc43)O[C@@H]2CO)cc1`, the IC50 is 2.64 µM.

`CCC(O)C1CCN(C(=O)c2cc(COc3ccc4ncccc4c3)on2)CC1` (configuration not stated): the concentration for half-maximal inhibition (IC50) was 1.72 µM.

For `CCCCCOC(=O)c1[nH]c2c(c1C)C(=O)CC(c1ccco1)C2` (configuration not stated), the IC50 is 0.41 µM.

Regarding `Cc1ccc2nc(-c3ccc4c(c3)OCCO4)cn2c1`, the 50% inhibitory concentration (IC50) was 2.34 µM.

With `CCOC(=O)c1[nH]c(C=O)c(C(=O)OCC)c1C`, the IC50 was 15.5 µM.

For `Cc1nc(Sc2nnnn2C)c2c3c(sc2n1)CCC3`, the IC50 was 31.4 µM (inactive).

Regarding `CCC(=O)NC(c1cccs1)c1ccc2cccnc2c1O` (configuration not stated), the IC50 was 1.61 µM.

`CCCCCc1ccc(OCCCC[n+]2ccc(C)cc2)c(CCCCC)c1`: the concentration for half-maximal inhibition (IC50) is 5.84 µM.

Turning to `COc1ccc(-c2csc(NC(=O)C3CCN(c4ncnc5sc(C)c(C)c45)CC3)n2)cc1OC`, the 50% inhibitory concentration (IC50) is 13.1 µM.

With `Cc1ccc(S(=O)(=O)Nc2ccccc2-c2ccccc2)cc1`, the IC50 is 8.86 µM.

For `COc1ccc(Nc2cc(C)nc(-n3nc(C)cc3C)n2)cc1`, the IC50 was 6.55 µM.

`COc1ccc(CS(=O)/C(Cl)=C(/Cl)C(=O)Nc2ccc(OC)nc2)cc1` (configuration not stated): the IC50 was 4.31 µM.

Turning to `CCCCCCCCCn1c2c(c(=N)c3c1CCC3)CCCC2`, the IC50 is 0.68 µM.

For `C=C(C)[C@@]12OC3(c4ccccc4)O[C@@H]1C1[C@@H]4O[C@]4(CO)[C@@H](O)[C@]4(O)C(=O)C(C)=C[C@H]4[C@@]1(O3)[C@H](C)[C@H]2OC(=O)/C=C/C=C/c1ccccc1` (some centres not stated), the half-inhibitory concentration (IC50) was under 0.16 µM.

For the compound `CCOC(=O)C(C)Oc1cccc2c(=O)n(CC(=O)NCc3ccc4c(c3)OCO4)ccc12` (configuration not stated), the half-inhibitory concentration (IC50) was 2.23 µM.

As to `CCOC(=O)Nc1nc(-c2ccccc2)c(C(=O)c2ccccc2)s1`, the IC50 is > 80 µM (inactive).

In the case of `Cc1sc2ncnc(NC3CCN(Cc4ccccc4)CC3)c2c1C`, the IC50 was 2.41 µM.

Turning to `COc1ccc(CCNc2nnc(Sc3nnnn3-c3ccccc3)s2)cc1OC`, the IC50 was 8.36 µM.

For `COc1ccc(CS(=O)(=O)/C(Cl)=C(/Cl)C(=O)Nc2ccc(OC)nc2)cc1`, the 50% inhibitory concentration (IC50) is 3.46 µM.

As to `COc1cccc(N2CCN(C(=O)c3ccc(CS(=O)c4ccccc4Cl)o3)CC2)c1` (configuration not stated), the IC50 is 6.1 µM.

`Cc1cccc(NS(=O)(=O)c2ccc(-c3cnc(C4CC4)o3)cc2)c1C`: the IC50 is 1.7 µM.

In the case of `CSc1nccc(-c2nn(-c3ccc(C)cc3)ccc2=O)n1`, the half-maximal inhibitory concentration (IC50) was 6.22 µM.

On to `CC1CCCN(c2ncnc3c2cnn3-c2ccc(Cl)cc2)C1` (configuration not stated), for which the IC50 was 8.88 µM.

With `COc1ccc(NC(=O)/C(Cl)=C(/Cl)S(=O)Cc2ccc(C)cc2)cn1` (configuration not stated), the 50% inhibitory concentration (IC50) was 5.5 µM.

As for `COc1cccc(C2CC(=O)Nc3cc4c(cc32)CCC4)c1` (configuration not stated), the IC50 was 10.7 µM.

As for `Cc1cc(C)c(S(=O)(=O)Nc2ccc3c4c(cccc24)CC3)c(C)c1`, the half-maximal inhibitory concentration (IC50) was 1.73 µM.

Consider `COc1ccc(Cl)cc1NC(=O)CN(C)CC(=O)Nc1ccccc1N1CCOCC1`, for which the half-maximal inhibitory concentration (IC50) was 12 µM.

Consider `COc1ccc(C(=O)c2ccc(N(C)C)cc2)c(OC)c1`, for which the IC50 is 71.1 µM (inactive).

On to `c1cc2c(cc1C1=NNC(=NC3CC3)SC1)OCCO2`, for which the IC50 was 2.33 µM.

As for `COc1cc(NS(=O)(=O)c2ccc(OC)c(C)c2C)c(OC)cc1Cl`, the half-maximal inhibitory concentration (IC50) is 5.28 µM.

On to `Cc1ccc(C(=O)O/N=C(\N)c2ccccn2)c(Cl)c1`, for which the half-inhibitory concentration (IC50) is 2.61 µM.

As to `COc1ccccc1-c1nnc2sc(-c3ccc(N(C)C)cc3)nn12`, the IC50 was 2.32 µM.

With `Cc1ccc(C)c(CSc2nc3[nH]ncc3c(=O)[nH]2)c1`, the IC50 was 4.88 µM.

For `CCCc1cc(C(=O)N/N=C/c2ccc(CC)s2)c2ccccc2n1`, the IC50 is 2.47 µM.

As for `CC(C)c1oc(=O)cc2c1[C@@H](O)[C@H]1OC(=O)[C@@]3(C)C[C@@H](O)[C@@H](O)[C@@]2(C)C13` (some centres not stated), the IC50 was 0.75 µM.

In the case of `COc1ccc(CNS(=O)(=O)c2cc(-c3cc(C)no3)ccc2C(C)C)cc1`, the IC50 is 10.9 µM.

Take `CCCCCCCn1c2c(c(=N)c3ccccc31)CCC2`: the IC50 is 0.99 µM.

`CCOc1ccccc1C1CC(=O)Nc2cc(C)c(C)cc21` (configuration not stated): the half-inhibitory concentration (IC50) was 7.75 µM.

For the compound `Cc1ccc2c(c1)C=CC(C#N)N2C(=O)c1ccccc1` (configuration not stated), the IC50 is 29.1 µM (inactive).

On to `CC1(C)Cc2nc3sc4c(=O)n(CC(=O)NCc5ccccc5)cnc4c3cc2CO1`, for which the IC50 was > 80 µM (inactive).

As to `CCCCCCCCn1c2c(c(=N)c3ccccc31)CCC2`, the half-inhibitory concentration (IC50) was 1.39 µM.

`O=c1cc(-c2ccccc2)[nH]c2ccccc12`: the half-maximal inhibitory concentration (IC50) is 15.5 µM.

As for `Cc1cccc(N2CCN(C(=O)c3c(-c4ccccc4Cl)noc3C)CC2)c1C`, the IC50 is 6.03 µM.

Regarding `CCCCn1c2c(c(=N)c3c1CCC3)CCC2`, the IC50 is 8.5 µM.

With `CCCCCCCOc1ccc(OC(=O)c2cccnc2)cc1`, the IC50 was > 80 µM (inactive).

Regarding `CCOc1ccc(Br)cc1C1=CC(=O)C[C@H](c2ccc(OC)cc2)C1`, the 50% inhibitory concentration (IC50) is 13.7 µM.

As for `Cc1ccc(C(=O)c2cc([N+](=O)[O-])ccc2N2CCCCC2)c(C)c1`, the IC50 was 7.17 µM.

Take `Cc1ccc(N2C(=O)c3cccc4c(N)ccc(c34)C2=O)c2cccnc12`: the IC50 is under 0.16 µM.

On to `CCN1/C(=C/c2ccc3ccccc3[n+]2CC)C=Cc2ccccc21`, for which the IC50 is 1.01 µM.

As for `CCCC(=O)NC(c1ccc(C)cc1)c1ccc2cccnc2c1O` (configuration not stated), the concentration for half-maximal inhibition (IC50) was 0.43 µM.

The record behind these values is PubChem BioAssay AID489041 (Sanford-Burnham Center for Chemical Genomics, 2010).
